Measured values from US20250025438A1, “Derivative of aspartic acid and use thereof in treatment of metabolic diseases such as hepatic fibrosis and non-alcoholic hepatitis” (SHENZHEN JINGTAI TECHNOLOGY CO., LTD., priority 2021, published 2025).
Where a name gives a salt, the structure may show the parent alone.

Tests used:
Format in all cases: cell-based
α-SMA [1] = test: In-vitro liver fibrosis model in activated LX2 cells (TGFβ1), qPCR: α-SMA; conditions: LX-2 cells activated with TGFβ1 (5 ng/mL), 25 μM compound, 24 hours, real-time PCR
Protocol: (§1) This experiment was performed strictly in accordance with the instructions of the Total RNA Kit. The steps were as follows (note: this experiment was performed on ice throughout the entire process, and special RNase-free tips were used throughout the entire process): • 1) The 12-well cell culture plate was taken out from the incubator, the cell culture medium was discarded, the cells were washed twice with 1 mL of 1×PBS, and a negative pressure suction device was used to fully remove PBS; • 2) 350 μL of TRK Lysis Buffer mixture/well was prepared as needed (mixture preparation method: 1 mL of TRKLysis Buffer+20 μL of β-mercaptoethanol), vortexed and mixed well. 350 μL was added to each well of the 12-well cell culture plate, and allowed to stand at room temperature for 5 minutes to fully lyse the cells; • 3) 70% ethanol/well was prepared as needed, vortexed and mixed well. 350 μL was added to each well of the 12-well cell culture plate, mixed well by shaking, and transferred to the spin column (spin column+collection tube were assembled); • 4) Centrifugation was performed at 4° C., 12000 g for 60 sec. […]

collagen 3 = test: In-vitro liver fibrosis model in activated LX2 cells (TGFβ1), qPCR: collagen 3; conditions: LX-2 cells activated with TGFβ1 (5 ng/mL), 25 μM compound, 24 hours, real-time PCR
Protocol: as §1

COL1A2 = test: In vitro efficacy in semi-activated LX2 cells, qPCR: COL1A2; conditions: Homo sapiens, LX-2, 48 hours, Q-PCR, read-out: COL1A2 mRNA inhibition rate
collagen 1 = test: In-vitro liver fibrosis model in activated LX2 cells (TGFβ1), qPCR: collagen 1; conditions: LX-2 cells activated with TGFβ1 (5 ng/mL), 25 μM compound, 24 hours, real-time PCR
Protocol: as §1

α-SMA [2] = test: Activated LX2 cells (TGFβ1), Western blot: α-SMA; conditions: LX2 cells stimulated with TGFβ1 (5 ng/mL), 24 hours, FIG. 4

Row | Compound | α-SMA gene expression inhibition rate (α-SMA [1]) | collagen 3 gene expression inhibition rate (collagen 3) | inhibition at 50 µM (COL1A2) | collagen 1 gene expression inhibition rate (collagen 1) | expression of α-SMA in the cells (α-SMA [2])
1 | COC(=O)[C@@H](N)CC(=O)O [Compound 4] | B (B represented that the inhibition rate was 10% to 25%) | A (A represented that the inhibition rate was 25% or above) | 1 to 10% | A (A represented that the inhibition rate was 25% or above) | 
2 | COC(=O)C[C@H](N)C(=O)O [Compound 6] | A (A represented that the inhibition rate was 25% or above) | A (A represented that the inhibition rate was 25% or above) | 1 to 10% | B (B represented that the inhibition rate was 10% to 25%) | 
3 | COC(=O)C[C@H](N)C(=O)OCOC(=O)[C@@H](N)CC(=O)OC [Compound 54, 4-dimethyl O′1,01-methylene (2S,2'S)-bis (2-aminosuccinate) hydrochloride] |  |  |  |  | significantly decreased
